Values joined by “and” are separate entries in the source; they are usually repeats but may differ in a detail not shown here. Identical values can stand only once. Like-named read-outs stand apart in the source and are kept apart here. Square brackets hold non-standard residues; d marks the D form. Peptide text beside a SMILES is read from it. Hyp = O=C(O)[C@@H]1C[C@@H](O)CN1
Key:
[1] = target: T1, BAM1 LRR ectodomain (Arabidopsis thaliana, UniProt O49545); test: ITC, peptide titrated into BAM1 ectodomain; type: binding; details: ITC, 25 °C, mean ± SD of at least two independent experiments; for ΔH, peptide vs BAM1: peptide into BAM1 ectodomain, pH 5.0; for Kd (dissociation constant), peptide vs BAM1: peptide into BAM1 ectodomain (cell), 20 mM sodium citrate pH 5.0, 150 mM NaCl, N fitted to 1, n.d = no binding detected
T1 construct: BAM1 (residues 20–637, AT5G65700); azurocidin or Drosophila BIP signal peptide (secretion signal) (N); made in house; host or cells: Trichoplusia ni Tnao38 insect cells (baculovirus)
T1 sequence (O49545 20-637): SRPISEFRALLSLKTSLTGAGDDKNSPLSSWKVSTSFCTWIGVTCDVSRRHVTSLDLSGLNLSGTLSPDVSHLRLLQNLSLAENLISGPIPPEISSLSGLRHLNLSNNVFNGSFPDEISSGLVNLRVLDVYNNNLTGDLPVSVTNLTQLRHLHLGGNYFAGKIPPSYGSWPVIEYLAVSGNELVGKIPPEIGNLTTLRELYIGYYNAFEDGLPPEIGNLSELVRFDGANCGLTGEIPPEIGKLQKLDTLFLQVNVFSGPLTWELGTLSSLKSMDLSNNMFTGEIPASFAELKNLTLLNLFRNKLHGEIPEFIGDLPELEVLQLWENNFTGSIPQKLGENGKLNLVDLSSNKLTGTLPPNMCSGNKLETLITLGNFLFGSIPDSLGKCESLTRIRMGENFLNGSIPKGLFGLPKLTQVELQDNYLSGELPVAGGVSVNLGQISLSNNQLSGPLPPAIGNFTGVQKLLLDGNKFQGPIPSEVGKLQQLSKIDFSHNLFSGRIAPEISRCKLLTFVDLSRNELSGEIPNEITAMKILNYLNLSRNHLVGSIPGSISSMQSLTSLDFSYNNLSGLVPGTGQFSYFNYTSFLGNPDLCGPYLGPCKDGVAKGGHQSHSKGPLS
Text: All genes used for protein expression in Trichoplusia ni Tnao38 cells[46] were codon optimized and cloned into a modified pFastBac vector (Geneva Biotech) providing an azurocidin[47] or Drosophila BIP signal peptide, a TEV (tobacco etch virus protease) cleavage site and a Strep-9xHis tandem affinity tag at their carboxy terminus. The genes used are coding for the Arabidopsis ectodomains of HSL1 (residues 17-618, AT1G28440), HAE (residues 20-620, AT4G28490) SERK1 (residues 24–213, AT1G71830), and BAM1 (residues 20–637, AT5G65700). To perform Grating-coupled interferometry (GCI) experiments, HSL1 was fused to a non-cleavable Avi-tag[49],[50]. Baculovirus generation was carried out in DH10 cells and virus amplification was done in Spodoptera frugiperda Sf9 cells. For protein expression, Trichoplusia ni Tnao38 cells were infected with HAE, HSL1, BAM1 and SERK1 virus with a multiplicity of infection (MOI) of 3. The cells were grown 1 day at 28 °C and two days at 22 °C at 110 rpm. After every expression round, secretion of our proteins was detected using an anti-His-HRP conjugated antibody from Roche (Ref:11965085001) in a 1:2000 dilution. […] Next, affinity tags were removed by incubating the purified proteins with recombinant His-tagged TEV protease, in a 1:50 ratio. The cleaved tag and the protease were separated from the ectodomains by a second Ni^2+ affinity step. Proteins were further purified by size-exclusion chromatography on a Superdex 200 Increase 10/300 GL column (GE Healthcare) equilibrated in 20 mM citric acid pH 5.0, 150 mM NaCl. Peak fractions containing the single proteins or complexes were concentrated using Amicon Ultra concentrators (Millipore, MWCO 10,000 for SERK1 and 30,000 for HAE, HSL1, and BAM1) and used for crystallization or biochemical experiments. Proteins were analyzed for purity and structural integrity by SDS-PAGE.
Experiments were performed at 25 °C using a MicroCal PEAQ-ITC (Malvern Instruments) with a 200 µL standard cell and a 40 μL titration syringe. HSL1, BAM1, and SERK1 proteins were gel-filtrated into the ITC buffer (20 mM sodium citrate pH 5.0, 150 mM NaCl). Molar protein concentrations for HSL1, BAM1, and SERK1 were calculated using their molar extinction coefficient and a molecular weight of 74,896 and 27,551 Da, respectively as previously determined. A typical experiment consisted of injecting 2 μL of a range between 75 and 600 μM solution of ligand into 10 to 30 μM HAE, HSL1, or BAM1 solution in the cell at 150 s intervals and 500 rpm stirring speed. The SERK1 vs HAE/HSL1-peptide experiments were performed by titrating 100 µM SERK1 in the cell, using the same injection pattern. ITC data were corrected for the heat of dilution by subtracting the mixing enthalpies for titrant solution injections into protein-free ITC buffer. Experiments were done in duplicates or triplicates, otherwise specified, and data were analyzed using the MicroCal PEAQ-ITC Analysis Software provided by the manufacturer. […] The N values were fitted to 1 in the analysis.

[2] = target: T2, biotinylated HSL1 ectodomain with Avi-tag (Arabidopsis, UniProt Q9SGP2 17-618, biotin on the Avi-tag (BirA)); test: GCI
T2 chain: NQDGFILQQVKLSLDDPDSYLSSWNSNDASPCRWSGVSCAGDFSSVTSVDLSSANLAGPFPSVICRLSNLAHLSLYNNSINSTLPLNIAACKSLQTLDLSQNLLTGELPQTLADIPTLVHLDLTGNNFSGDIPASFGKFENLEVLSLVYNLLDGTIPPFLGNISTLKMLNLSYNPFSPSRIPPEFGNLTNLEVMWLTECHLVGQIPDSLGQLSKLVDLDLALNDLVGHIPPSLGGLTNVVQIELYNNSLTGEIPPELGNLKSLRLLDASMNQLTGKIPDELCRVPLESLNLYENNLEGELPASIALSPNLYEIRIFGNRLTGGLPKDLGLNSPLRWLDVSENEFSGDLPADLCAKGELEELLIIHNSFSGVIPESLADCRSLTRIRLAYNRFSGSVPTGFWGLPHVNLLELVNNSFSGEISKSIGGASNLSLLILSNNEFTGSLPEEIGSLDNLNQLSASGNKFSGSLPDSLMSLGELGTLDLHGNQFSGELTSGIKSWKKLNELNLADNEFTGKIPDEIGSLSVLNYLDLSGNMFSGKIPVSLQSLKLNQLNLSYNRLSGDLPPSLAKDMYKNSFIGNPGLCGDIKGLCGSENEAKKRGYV

[3] = target: T2, biotinylated HSL1 ectodomain with …
[4] = target: T2, biotinylated HSL1 ectodomain with …; test: GCI
[5] = target: T3, HSL1 (HAESA-LIKE 1) ectodomain (Arabidopsis, UniProt Q9SGP2 17-618); test: ITC
T3 chain: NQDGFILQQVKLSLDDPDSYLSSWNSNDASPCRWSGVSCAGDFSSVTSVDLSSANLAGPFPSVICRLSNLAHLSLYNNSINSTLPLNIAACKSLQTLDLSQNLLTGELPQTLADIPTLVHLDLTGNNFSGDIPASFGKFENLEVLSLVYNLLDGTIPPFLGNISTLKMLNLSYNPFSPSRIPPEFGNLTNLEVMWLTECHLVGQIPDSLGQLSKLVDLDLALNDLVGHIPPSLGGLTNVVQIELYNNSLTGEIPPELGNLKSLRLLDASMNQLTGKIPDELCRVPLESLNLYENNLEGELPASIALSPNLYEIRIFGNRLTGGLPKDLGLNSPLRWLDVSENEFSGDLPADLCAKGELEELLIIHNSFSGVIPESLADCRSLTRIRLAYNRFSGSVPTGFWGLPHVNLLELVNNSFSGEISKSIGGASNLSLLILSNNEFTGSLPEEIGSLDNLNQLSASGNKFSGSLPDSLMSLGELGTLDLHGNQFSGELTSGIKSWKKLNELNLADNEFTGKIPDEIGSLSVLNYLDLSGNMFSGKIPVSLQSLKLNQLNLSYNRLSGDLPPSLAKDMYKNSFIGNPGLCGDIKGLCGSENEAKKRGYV

[6] = target: T2, biotinylated HSL1 ectodomain with …

Q: With `CC[C@H](C)[C@H](NC(=O)[C@@H]1CCCN1)C(=O)N[C@H](C(=O)N1CCC[C@H]1C(=O)N[C@@H](CO)C(=O)NCC(=O)N1C[C@H](O)C[C@H]1C(=O)N[C@@H](CC(N)=O)C(=O)N1CCC[C@H]1C(=O)N[C@@H](CC(C)C)C(=O)N[C@@H](Cc1c[nH]cn1)C(=O)N[C@@H](CC(N)=O)C(=O)O)C(C)C` [CLE9^R109PL110I] (H-PIVPSG[Hyp]NPLHN-OH) as the molecule, how does the “ΔH, peptide vs BAM1” value [1] read?
A: -27 ± 11 kcal/mol

Q: `CC[C@H](C)[C@H](NC(=O)[C@@H]1CCCN1)C(=O)N1CCC[C@H]1C(=O)N1CCC[C@H]1C(=O)N[C@@H](CO)C(=O)NCC(=O)N1C[C@H](O)C[C@H]1C(=O)N[C@@H](CC(N)=O)C(=O)N1CCC[C@H]1C(=O)N[C@@H](CC(C)C)C(=O)N[C@@H](Cc1c[nH]cn1)C(=O)N[C@@H](CC(N)=O)C(=O)O` [CLE9^R109PL110IV111P] (H-PIPPSG[Hyp]NPLHN-OH) was tested. Which “Kd (dissociation constant), peptide vs BAM1” value [1] did it give?
A: non-detectable binding

Q: For `CC(C)C[C@H](NC(=O)[C@@H](N)CCCNC(=N)N)C(=O)N[C@H](C(=O)N1CCC[C@H]1C(=O)N[C@@H](CO)C(=O)N[C@@H](C)C(=O)N1C[C@H](O)C[C@H]1C(=O)N[C@@H](CO)C(=O)N[C@@H](CCCCN)C(=O)N[C@@H](CCCNC(=N)N)C(=O)N[C@@H](Cc1c[nH]cn1)C(=O)N[C@@H](CC(N)=O)C(=O)O)C(C)C` [IDA^P58RI59LP60V] (H-RLVPSA[Hyp]SKRHN-OH), which “Kd (dissociation constant), peptide vs BAM1” value [1] is on record?
A: restore binding to BAM1

Q: For `CC(C)C[C@H](NC(=O)[C@@H]1CCCN1)C(=O)N[C@H](C(=O)N1CCC[C@H]1C(=O)N[C@@H](CO)C(=O)NCC(=O)N1C[C@H](O)C[C@H]1C(=O)N[C@@H](CC(N)=O)C(=O)N1CCC[C@H]1C(=O)N[C@@H](CC(C)C)C(=O)N[C@@H](Cc1c[nH]cn1)C(=O)N[C@@H](CC(N)=O)C(=O)O)C(C)C` [CLE9^R109P] (H-PLVPSG[Hyp]NPLHN-OH), which “ΔH, peptide vs BAM1” value [1] is on record?
A: -26 ± 8 kcal/mol

Q: With `CC(C)C[C@H](NC(=O)[C@@H]1CCCN1C(=O)[C@H](CC(N)=O)NC(=O)[C@@H]1C[C@@H](O)CN1C(=O)CNC(=O)[C@H](CO)NC(=O)[C@@H]1CCCN1C(=O)[C@@H]1CCCN1C(=O)[C@H](CC(C)C)NC(=O)[C@@H]1CCCN1)C(=O)N[C@@H](Cc1c[nH]cn1)C(=O)N[C@@H](CC(N)=O)C(=O)O` [CLE9^R109PV111P] (H-PLPPSG[Hyp]NPLHN-OH) as the molecule, how does the “ΔH, peptide vs BAM1” value [1] read?
A: -3.7 ± 0.4 kcal/mol

Q: `CC(C)C[C@H](NC(=O)[C@@H]1CCCN1C(=O)[C@H](CC(N)=O)NC(=O)[C@@H]1C[C@@H](O)CN1C(=O)CNC(=O)[C@H](CO)NC(=O)[C@@H]1CCCN1C(=O)[C@@H]1CCCN1C(=O)[C@H](CC(C)C)NC(=O)[C@@H](N)CCCNC(=N)N)C(=O)N[C@@H](Cc1c[nH]cn1)C(=O)N[C@@H](CC(N)=O)C(=O)O` [CLE9^V111P] (H-RLPPSG[Hyp]NPLHN-OH) was tested. Which “ΔH, peptide vs BAM1” value [1] did it give?
A: -19 ± 8.3 kcal/mol

Q: With PVPASAPSRKHN [IDL4 (IDA-LIKE 4) mature peptide] as the molecule, how does the koff [2] read?
A: 0.65 s⁻¹

Q: And the koff [3]?
A: 0.52 s⁻¹ and 0.75 s⁻¹

Q: And the Kd [4]?
A: 1850 nM

Q: What about the Kd [5] of the same molecule?
A: 2020 nM

Q: What about the Kd [6] of the same molecule?
A: 2700 nM and 1000 nM

Reference: article PMC8847575, “HSL1 and BAM1/2 impact epidermal cell development by sensing distinct signaling peptides” (Nature Communications, 2022)
